# Publication PMC8121762, “Peptidomics of enteroendocrine cells and characterisation of potential effects of a novel preprogastrin derived-peptide on glucose tolerance in lean mice” (Peptides, 2021)
# “Also recorded” adds a separate entry of the source. Where a SMILES comes first, the peptide text is derived from it. [ ]: non-standard residue; d: D form. pGlu = O=C1CC[C@@H](C(=O)O)N1
# Experiments:
# [1] = system: primary mouse islets; test: Islet secretion studies; format: cell-based; details: 100 nM peptide, 1 or 16.7 mM glucose, 45 min at 37 °C, LC–MS/MS, n = 9 per group, Mann-Whitney U test
# Method: Mice were culled by cervical dislocation and the pancreas inflated by […] injection of a 0.75 mg/mL collagenase V (Sigma-Aldrich) solution in HBSS before removal of the pancreas. The pancreas was incubated at 37 °C for 12 min to liberate islets. The digested tissue was washed in HBSS with 0.1 % BSA before islets were hand-picked under a light microscope. Islets were rested for 1 h by incubating at 37 °C in Krebs’s ringer buffer (KRB, 129 mM NaCl, 2 mM NaHCO3, 4.8 mM KCl, 1.2 mM KH2PO4, 2.5 mM CaCl2, 1.2 mM MgSO4, 10 mM HEPES and adjusted to pH 7.4 with 1 M NaOH.) with 0.1 % BSA and 5.5 mM glucose. Ten size matched islets were then transferred to a 2 mL protein LoBind Eppendorf tubes for 45 min at 37 °C with KRB + 0.001% BSA + one of the following: 1 mM glucose, 16.7 mM glucose, 1 mM glucose + 100 nM Gast p59−79 or 16.7 mM glucose + 100 nM Gast p59−79. At the end of the incubation the supernatant was removed and snap frozen. On the day of analysis all supernatants were defrosted, acidified with 30 μL of 1% FA (aq) (v/v) and extracted with SPE.
# Peptides were quantified on as in section 2.8.3. Table 2 details the peptides quantified as well as their product ions, precursor ions, collision energies and dwell times.
# Fig. 9 Effect of Gast p59-79 on glucagon (A), insulin-1 (B) and SST-14 (C) secretion from isolated mouse islets. Data represents n = 9 per group. Statistical analysis was performed using a Mann-Whitney U test. Data expressed as peak area normalised to islet number.
# [2] = system: diet-induced obese mice (DIO); test: Osmotic pump study 3: IP GTT, OGTT and ITT in diet-induced obese mice; format: in vivo, mouse; details: vs vehicle
# Method: Three studies were performed to assess the in vivo efficacy of the ChgA 435−462a and Gast p59−79 (see Figure legends for specifics of each study). Peptides were administered by osmotic pumps implanted subcutaneously under isoflurane anaesthesia. Food intake was assessed using BioDaq (Research Diets) automated food intake cages. Intraperitoneal (IP) glucose tolerance tests (GTT) were performed by administering a 2 g/kg challenge of glucose and measuring blood glucose levels from the tail vein whereas oral GTT (OGTT) were performed using 1 g/kg glucose challenge. Insulin tolerance tests (ITT) were performed by administering a 0.75 U/kg dose of insulin IP to the mice and assessing blood glucose levels at 15, 30, 45, 60, 90 and 120 min post-insulin challenge.
# Fig. 7 In vivo characterisation of novel peptides. (A-C) PK data of ChgA 435-462a, Gast p59-79, Sst 25-36. (D-G) Data from 1st osmotic pump study where n = 5/group. […] Body weights (E) and food intake (D) were measured throughout the study. Week 0 and day -7 represent baseline data prior to treatment onset. Glucose tolerance was assessed every 7 days after surgery via an IP GTT using a 2 g/kg glucose challenge. Results from IP GTT on day 28 shown in (F, G). Statistical analysis performed using Kruskal-Wallis test with post-hoc Dunn tests. (H, I) Results from osmotic pump study 2 where n = 8/group. Mice singly housed and infused with either Gast p59-79 or vehicle for 7 days. 2 g/kg IP GTT performed on day 7 and results shown in H and I. Statistical analysis performed using T test. (J-P) Results from osmotic pump study 3 where n = 7/group. Mice singly housed and infused with either Gast p59-79 or vehicle for 7 days. 2 g/kg IP GTT performed on day 7 (J, K) and 1 g/kg OGTT performed on day 14 (L, M). 0.75 U/kg ITT performed on day 21 (N, O). Body weights vs AUC during ITT on day 21 (P). Error bars represent SD. *P < 0.05, **p < 0.01, ***p < 0.005.
# [3] = system: phosphorylated-AKT (pAKT); test: Post-mortem assessment of insulin sensitivity (pAKT / total-AKT, MSD kits); format: in vivo, mouse; details: DIO mice, 28 days after pump surgery, 15 min after 0.75 U/kg insulin challenge; treatment vs vehicle
# Method: At the end of the 3rd osmotic pump study, mice were given a 0.75 U/kg insulin challenge and culled after 15 min. The liver, white adipose tissue (WAT) and skeletal muscle were dissected out and snap frozen in liquid nitrogen and stored at −70 °C until analysis.
# 50−100 mg pieces of WAT, liver and skeletal muscle were homogenised in MSD (Rockville, MD, USA) lysis buffer with various protease inhibitors supplied by MSD and Qiagen metal bead. Homogenised tissue was allowed to rest at 4 °C for 2 h to allow protein solubilisation and then centrifuged (10 000 g, 10 min, 4 °C). Supernatants were aspirated and stored at -70 °C till analysis. Protein content of all homogenised tissue samples was assessed using a Pierce BCA protein assay kit (Thermo Fisher Scientific) according to the manufacturer’s instructions.
# Tissue homogenates were diluted in MSD lysis buffer to the same protein content. Total and phosphorylated-AKT (pAKT) were quantified using respective kits from MSD (total-AKT kit catalogue number: K150MOD-1, pAKT (Ser473) kit catalogue number: K151CAD-1) according to the manufacturer’s instructions.
# Fig. 8 Phosphorylated-AKT (pAKT) expressed as a percentage of total AKT in liver (A), skeletal muscle (B) and white adipose tissue (WAT) (C) 15 min after a 0.75 U/kg insulin challenge. (D) Body weights vs pAKT as a percentage of total-AKT. […]
compound,measurement,setting,value
CC[C@H](C)[C@H](NC(=O)[C@H](Cc1ccccc1)NC(=O)[C@H](Cc1c[nH]cn1)NC(=O)[C@H](CCC(N)=O)NC(=O)[C@@H]1CCCN1C(=O)CNC(=O)[C@H](CCC(N)=O)NC(=O)[C@@H]1CCCN1C(=O)CNC(=O)[C@H](CC(C)C)NC(=O)[C@@H]1CCC(=O)N1)C(=O)N[C@@H](C)C(=O)N[C@@H](CC(=O)O)C(=O)N[C@@H](CC(C)C)C(=O)N[C@@H](CO)C(=O)N[C@@H](CCCCN)C(=O)N[C@@H](CCCCN)C(=O)N[C@@H](CCC(N)=O)C(=O)N[C@@H](CCCNC(=N)N)C(=O)N1CCC[C@H]1C(=O)N[C@@H](CCCNC(=N)N)C(=O)O [Gast p59−79] ([pGlu]LGPQGPQHFIADLSKKQRPR-OH; C-terminus assumed),SST-14 secretion from isolated islets,[1],No significant effect
same,glucagon secretion from isolated islets,[1],No significant effect
same,insulin-1 secretion from isolated islets,[1],No significant effect
same,AUC during ITT,"[2]; 0.75 U/kg ITT day 21, n = 7/group, significant effect of body weight on AUC (p = 0.009), two-way ANOVA",also evident in the AUCs (p = 0.011)
same,blood glucose levels in ITT,"[2]; 0.75 U/kg insulin IP on day 21, n = 7/group, confounded by body weight",differed at 90 and 120 min post-insulin challenge; also recorded: appeared to slow glucose normalisation following an ITT
same,glucose tolerance (IP GTT and OGTT) in DIO mice,"[2]; osmotic pump, 2 g/kg IP GTT day 7, 1 g/kg OGTT day 14, n = 7/group, confounded by weight loss",did not suggest that Gast p59−79 affected glucose tolerance
same,"percentage of pAKT (of total AKT) in liver, WAT and skeletal muscle",[3],No effect
